{"source": "paper PMC8147781", "about": "“Discovery of Pyrrolidine-2,3-diones as Novel Inhibitors of P. aeruginosa PBP3” (Antibiotics, 2021)", "key": {"[1]": {"test_system": "S. aureus 133", "test": "MIC broth microdilution, S. aureus", "assay_type": "cell-based", "details": "Staphylococcus aureus, 133, 18 h; PMBN 0 µg/mL, control compounds", "protocol": "(§1) MIC determination was performed via standard broth microdilution according to the Clinical & Laboratory Standards institute guidelines. Overnight colonies grown on BD-Columbia agar with 5% Sheep Blood (Becton Dickinson, Franklin Lakes, NJ, USA), were diluted in Mueller Hinton Broth 2 cation adjusted (MH+) medium (Thermo Fisher Scientific) to a concentration of 5 × 10^5 CFU/mL. Serial dilutions (1:2) of test compounds were incubated at 37 °C with 5 × 10^4 bacteria in a final volume of 100 μL. Sterile and growth controls in the presence of 1% DMSO and PMBN if the case, and the positive controls, aztreonam (AZT) and tigecycline (TIG) were included in the experiments (Table S4). The MICs were determined visually after 18 h at 37 °C and confirmed by the addition of 10% PrestoBlue (ThermoFisher Scientific) reagent according to the manufacture’s protocol. The fluorescence signal of PrestoBlue reagent was measured at Ex/Em: 550/595 nm after 30 min incubation at 37 °C using at a ClarioStar microplate reader (BMG Labtech). PrestoBlue reduction occurs in the presence of living cells and consequently turns red in colour and is highly fluorescent."}, "[2]": {"test_system": "S. pneumoniae", "test": "MIC broth microdilution, S. pneumoniae", "assay_type": "cell-based", "details": "Streptococcus pneumoniae, 18 h; PMBN 0 µg/mL, control compounds; read-out: MIC (µM) S. pneumoniae", "protocol": "as §1"}, "[3]": {"test_system": "P. aeruginosa K2896 ΔmexBΔmexXYΔmexCD-oprJ", "test": "MIC broth microdilution, P. aeruginosa K2896 efflux mutant", "assay_type": "cell-based, Pseudomonas aeruginosa", "description": "(§2) The results presented above implied that seven pyrrolidine-2,3-dione derivatives inhibited the activity of ^PaPBP3 in vitro. Consequently, we were very interested in investigating the potential of these compounds to affect the growth of P. aeruginosa. Two P. aeruginosa bacterial strains (the wild-type PAO1 and the isogenic ΔmexB ΔmexX ΔmexCD-oprJ efflux pump mutant) were used to determine the MIC and the potential role of the main P. aeruginosa efflux systems in compound uptake. To increase the antibacterial sensitivity of the tested P. aeruginosa isolates to the potential inhibitors, we performed MIC experiments in the presence and absence of a sub-MIC concentration (4 µg/mL) of the outer membrane permeabilising polymyxin B nonapeptide (PMBN). […] Thus, we concluded that the physicochemical properties of the pyrrolidine-2,3-dione compounds were perhaps not yet favourable enough to cross the P. aeruginosa cell envelope without a permeabiliser because of their high hydrophobicity.\n(§3) The wild-type P.aeruginosa PAO1 and the isogenic P. aeruginosa K2896 ΔmexBΔmexXYΔmexCD-oprJ isolates were used to determine the MIC in the presence and absence of PMBN [48].\nas §1"}, "[4]": {"test_system": "A. baumannii ATCC15308", "test": "MIC broth microdilution, A. baumannii", "assay_type": "cell-based", "details": "Acinetobacter baumannii, control compounds", "protocol": "as §1"}, "[5]": {"test_system": "K. pneumoniae clinical isolate", "test": "MIC broth microdilution, K. pneumoniae", "assay_type": "cell-based", "details": "control compounds", "protocol": "as §1"}, "[6]": {"test_system": "B. subtilis 168", "test": "MIC broth microdilution, B. subtilis", "assay_type": "cell-based", "details": "Bacillus subtilis, 168, 18 h; PMBN 0 µg/mL, control compounds", "protocol": "as §1"}, "[7]": {"test_system": "E. coli Neumann", "test": "MIC broth microdilution, E. coli", "assay_type": "cell-based", "details": "Escherichia coli; PMBN 0 µg/mL, control compounds; read-out: MIC (µM) E. coli Newmann", "protocol": "as §1"}, "[8]": {"test_system": "P. aeruginosa PAO1 (wild-type strain)", "test": "MIC broth microdilution, P. aeruginosa PAO1", "assay_type": "cell-based, Pseudomonas aeruginosa", "description": "as §2, §3, §1"}}, "data": [{"smiles": "C[C@H]1[C@H](NC(=O)/C(=N\\OC(C)(C)C(=O)O)c2csc(N)n2)C(=O)N1S(=O)(=O)O", "note": "[Aztreonam, aztreonam, reference compound]", "values": [{"measurement": "MIC", "setting": "[1]", "result": "> 1.2", "unit": "µM"}, {"measurement": "MIC", "setting": "[2]", "result": "> 1.2", "unit": "µM"}, {"measurement": "MIC", "setting": "[3]; Pseudomonas aeruginosa, read-out: MIC (µM) P. aeruginosa K2896", "result": 0.575, "unit": "µM"}, {"measurement": "MIC (µM) against P. aeruginosa K28926", "setting": "[3]; ΔmexB, ΔmexX, ΔmexCD-oprJ, with 4 µg/mL PMBN", "result": 0.29, "unit": "µM"}, {"measurement": "MIC", "setting": "[4]; ATCC15308, PMBN 0 µg/mL", "result": "> 1.2", "unit": "µM"}, {"measurement": "MIC", "setting": "[4]; ATCC15308, PMBN 50 µg/mL", "result": 0.58, "unit": "µM"}, {"measurement": "MIC", "setting": "[5]; PMBN 0 µg/mL", "result": 0.143, "unit": "µM"}, {"measurement": "MIC", "setting": "[5]; PMBN 50 µg/mL", "result": 0.071, "unit": "µM"}, {"measurement": "MIC", "setting": "[6]", "result": "> 1.2", "unit": "µM"}, {"measurement": "MIC", "setting": "[7]", "result": 0.287, "unit": "µM"}, {"measurement": "MIC", "setting": "[8]; Pseudomonas aeruginosa, PAO1, PMBN 0 µg/mL (absence of PMBN)", "result": "> 1.2", "unit": "µM"}, {"measurement": "MIC (µM) against P. aeruginosa PAO1", "setting": "[8]; wild-type strain, with 4 µg/mL PMBN", "result": 0.58, "unit": "µM"}]}]}
